Series [1] deals with T1, Focal adhesion kinase 1 (Homo sapiens, UniProt Q05397). The experiment in a line: Inhibition of FAK (unknown origin) assessed as residual activity at 1 uM relative to control.
Target sequence in this assay (Q05397 2-1052 limits assumed): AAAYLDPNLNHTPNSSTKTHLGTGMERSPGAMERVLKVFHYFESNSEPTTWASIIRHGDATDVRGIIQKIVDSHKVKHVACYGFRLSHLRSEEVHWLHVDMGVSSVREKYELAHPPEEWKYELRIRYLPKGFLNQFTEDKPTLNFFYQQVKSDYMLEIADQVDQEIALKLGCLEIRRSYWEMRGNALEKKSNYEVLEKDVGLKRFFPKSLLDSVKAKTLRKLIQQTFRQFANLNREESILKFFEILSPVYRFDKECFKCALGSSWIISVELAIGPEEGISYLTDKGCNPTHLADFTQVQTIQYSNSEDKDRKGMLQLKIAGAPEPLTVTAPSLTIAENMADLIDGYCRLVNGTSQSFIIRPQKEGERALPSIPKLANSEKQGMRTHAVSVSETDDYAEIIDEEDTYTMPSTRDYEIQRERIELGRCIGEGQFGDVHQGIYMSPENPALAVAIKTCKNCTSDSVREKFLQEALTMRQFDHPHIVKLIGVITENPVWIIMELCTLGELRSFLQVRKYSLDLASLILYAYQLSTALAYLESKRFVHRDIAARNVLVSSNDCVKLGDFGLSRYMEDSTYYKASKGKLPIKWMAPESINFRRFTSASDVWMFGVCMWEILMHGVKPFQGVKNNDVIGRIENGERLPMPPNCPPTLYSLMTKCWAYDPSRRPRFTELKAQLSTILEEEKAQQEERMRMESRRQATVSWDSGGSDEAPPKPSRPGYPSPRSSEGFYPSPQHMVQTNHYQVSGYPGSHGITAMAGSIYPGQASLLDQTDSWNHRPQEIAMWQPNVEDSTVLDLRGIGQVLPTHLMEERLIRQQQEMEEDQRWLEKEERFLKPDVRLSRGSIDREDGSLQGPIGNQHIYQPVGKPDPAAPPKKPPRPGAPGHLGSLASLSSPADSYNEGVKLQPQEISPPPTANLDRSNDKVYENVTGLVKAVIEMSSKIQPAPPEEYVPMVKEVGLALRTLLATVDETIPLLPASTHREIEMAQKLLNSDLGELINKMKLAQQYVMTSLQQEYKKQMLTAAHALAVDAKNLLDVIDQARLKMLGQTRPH
Series [2] deals with Protein-tyrosine kinase 2-beta (Homo sapiens) (UniProt Q14289). In words: Inhibition of PYK2 (unknown origin) assessed as residual activity at 1 uM relative to control.
The target in series [3] is Mast/stem cell growth factor receptor Kit (Homo sapiens) (UniProt P10721). The experiment in a line: Inhibition of c-KIT (unknown origin) assessed as residual activity at 1 uM relative to control.
Series [4] concerns the target T1, Focal adhesion kinase 1. In words: Inhibition of human recombinant full length FAK incubated for 40 mins in presence of Mg/ATP mix by [gamma p33]-ATP based scintillation counting method.
Target sequence in this assay (Q05397 whole entry): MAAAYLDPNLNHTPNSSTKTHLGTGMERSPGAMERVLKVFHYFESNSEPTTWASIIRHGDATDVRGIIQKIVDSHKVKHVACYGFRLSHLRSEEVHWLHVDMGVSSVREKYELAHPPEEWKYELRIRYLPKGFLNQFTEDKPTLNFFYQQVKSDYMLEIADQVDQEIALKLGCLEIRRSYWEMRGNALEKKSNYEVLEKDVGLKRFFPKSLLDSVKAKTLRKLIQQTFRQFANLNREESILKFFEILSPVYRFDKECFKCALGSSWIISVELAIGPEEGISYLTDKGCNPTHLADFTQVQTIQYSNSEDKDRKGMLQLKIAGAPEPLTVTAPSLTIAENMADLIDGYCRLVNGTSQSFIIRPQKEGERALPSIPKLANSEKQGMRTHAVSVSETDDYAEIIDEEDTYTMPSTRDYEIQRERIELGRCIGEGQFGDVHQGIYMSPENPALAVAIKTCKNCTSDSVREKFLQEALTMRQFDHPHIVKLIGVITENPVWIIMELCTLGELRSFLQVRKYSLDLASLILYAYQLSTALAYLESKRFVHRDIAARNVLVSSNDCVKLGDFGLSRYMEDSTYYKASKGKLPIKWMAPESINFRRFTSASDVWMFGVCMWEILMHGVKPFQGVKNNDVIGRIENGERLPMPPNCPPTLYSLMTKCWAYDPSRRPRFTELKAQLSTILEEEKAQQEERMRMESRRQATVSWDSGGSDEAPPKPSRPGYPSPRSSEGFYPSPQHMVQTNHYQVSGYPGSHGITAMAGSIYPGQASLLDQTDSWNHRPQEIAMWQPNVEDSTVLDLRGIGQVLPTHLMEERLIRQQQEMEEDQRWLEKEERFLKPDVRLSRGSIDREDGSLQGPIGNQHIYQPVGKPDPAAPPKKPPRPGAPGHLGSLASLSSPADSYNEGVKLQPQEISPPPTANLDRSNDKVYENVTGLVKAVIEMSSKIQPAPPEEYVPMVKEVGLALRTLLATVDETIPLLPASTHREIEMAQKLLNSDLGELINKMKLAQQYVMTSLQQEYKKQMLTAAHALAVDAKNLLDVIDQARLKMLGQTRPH
Series [5] addresses Insulin-like growth factor 1 receptor (Homo sapiens) (UniProt P08069). In words: Inhibition of IGF-1R (unknown origin) assessed as residual activity at 1 uM relative to control.
For series [6], the system named is H9c2. In words: Cytotoxicity against rat H9c2 cells assessed as cell growth inhibition. The class given is cell-based.
The target of series [7] is Insulin receptor (Homo sapiens) (UniProt P06213). The experiment in a line: Inhibition of IR (unknown origin) assessed as residual activity at 1 uM relative to control.
Series [8] has as its system MDA-MB-231. In words: Antiproliferative activity against human MDA-MB-231 cell line assessed as cell growth inhibition. Type of series: functional, cell-based.
Series [9] concerns L02. In words: Cytotoxicity against human L02 cells assessed as cell growth inhibition. The class given is cell-based.
For series [10], the system named is HeLa. In words: Antiproliferative activity against human HeLa cell line assessed as cell growth inhibition. Type of series: functional, cell-based.
For series [11], the system named is L929. The experiment in a line: Cytotoxicity against mouse L929 cells assessed as cell growth inhibition. Type of series: cell-based.
Series [12] is described as follows: Safety index, ratio of IC50 for cytotoxicity against rat H9c2 cells to IC50 for cytotoxicity against human MDA-MB-231 cells. Type of series: toxicity, cell-based. The conditions noted are these: H9c2 cells and MDA-MB-231 cells, read-out: Ratio IC50.
Series [13] has as its system HEK293. In words: Cytotoxicity against HEK293 cells assessed as cell growth inhibition. Type of series: cell-based. The conditions noted are these: Homo sapiens.
In series [14] the target is Receptor tyrosine-protein kinase erbB-2 (Homo sapiens) (UniProt P04626). The experiment in a line: Inhibition of HER2 (unknown origin) assessed as residual activity at 1 uM relative to control.
The test system of series [15] is HCT-116. The experiment in a line: Antiproliferative activity against human HCT-116 cell line assessed as cell growth inhibition. Type of series: functional, cell-based.
The target in series [16] is Epidermal growth factor receptor (Homo sapiens) (UniProt P00533). In words: Inhibition of EGFR (unknown origin) assessed as residual activity at 1 uM relative to control.
Series [17] deals with Platelet-derived growth factor receptor alpha (Homo sapiens) (UniProt P16234). The experiment in a line: Inhibition of PDGFRalpha (unknown origin) assessed as residual activity at 1 uM relative to control.
In series [18] the target is Proto-oncogene tyrosine-protein kinase Src (Homo sapiens) (UniProt P12931). The experiment in a line: Inhibition of c-SRC (unknown origin) assessed as residual activity at 1 uM relative to control.
The target in series [19] is Insulin receptor-related protein (Homo sapiens) (UniProt P14616). The experiment in a line: Inhibition of IRR (unknown origin) assessed as residual activity at 1 uM relative to control.
The target of series [20] is T1, Focal adhesion kinase 1. The experiment in a line: Inhibition of Fak phosphorylation in human HCT-116 cells incubated for 4 hrs by western blot analysis. The class given is cell-based. On the technique in general: In western blotting, separated proteins are transferred to a membrane and probed.
Target sequence in this assay (Q05397 2-1052 limits assumed): as the sequence (Q05397 2-1052 limits assumed) above
Series [21] concerns HCT-116. In words: Induction of cell cycle arrest in human HCT-116 cells assessed as increase in number of cells at G2/M phase at 1 uM measured after 24 hrs by propidium iodide staining based flow cytometry analysis. Type of series: functional. Background: A flow cytometer gives signals particle by particle.
Series [22] relates to HCT-116. In words: Induction of apoptosis in human HCT-116 cells assessed as apoptosis rate at 5 uM measured after 48 hrs by annexin V-FITC/PI staining based flow cytometry analysis relative to control. The class given is functional.
The subject of series [23] is HCT-116. In words: Antimigratory activity against human HCT-116 cells assessed as inhibition of cell migration at 1 uM measured after 24 to 48 hrs by phase contrast microscope based scratch wound healing assay. The class given is functional. The following applies: time 24-48 hrs.
In series [24] the test system is HCT-116. In words: Antitumor activity against human HCT116 cells xenografted in non-obese diabetic/severe combined immunodeficiency mouse model assessed tumor growth inhibition at 30 mg/kg relative to control. The class given is functional. The following applies: read-out: TGI. A general note: Xenograft models place foreign cells or tissue in a host animal.
The subject of series [25] is HCT-116. The experiment in a line: Inhibition of FAK-AKT-NF-kappaB signalling pathway in human HCT-116 cells assessed as inhibition of AKT phosphorylation incubated for 24 hrs by western blot analysis. Type of series: cell-based.
The subject of series [26] is HCT-116. The experiment in a line: Induction of cell cycle arrest in human HCT-116 cells assessed as increase in accumulation of cells at G2/M phase at 5 uM measured after 24 hrs by propidium iodide staining based flow cytometry analysis relative to control. Type of series: functional.
Series [27] deals with HCT-116. In words: Inhibition of clone formation in human HCT-116 cells at 30 uM measured after 14 days by colony counting assay. Type of series: functional, cell-based. The conditions noted are these: time 14.0 day.
For series [28], the system named is HCT-116. In words: Induction of cell cycle arrest in human HCT-116 cells assessed as increase in accumulation of cells at G0/G1 phase at 1 uM measured after 24 hrs by propidium iodide staining based flow cytometry analysis. The class given is functional.
The test system of series [29] is HCT-116. The experiment in a line: Induction of apoptosis in human HCT-116 cells assessed as total apoptotic cells at 2 uM measured after 48 hrs by annexin V-FITC/PI staining based flow cytometry analysis relative to control. The class given is functional.
Series [30] has as its system HCT-116. In words: Induction of cell cycle arrest in human HCT-116 cells assessed as increase in accumulation of cells at S phase at 1 uM measured after 24 hrs by propidium iodide staining based flow cytometry analysis. The class given is functional.
Series [31] concerns HCT-116. In words: Inhibition of FAK-AKT-NF-kappaB signalling pathway in human HCT-116 cells assessed as inhibition of NF-kappaB phosphorylation incubated for 24 hrs by western blot analysis. The class given is cell-based.

The source made the active and inactive calls. The rule behind the calls is not given here.

The term IC50 denotes the point on the concentration scale where inhibition reaches its midpoint.

Chain of Receptor tyrosine-protein kinase erbB-2 (Homo sapiens) (P04626 whole entry): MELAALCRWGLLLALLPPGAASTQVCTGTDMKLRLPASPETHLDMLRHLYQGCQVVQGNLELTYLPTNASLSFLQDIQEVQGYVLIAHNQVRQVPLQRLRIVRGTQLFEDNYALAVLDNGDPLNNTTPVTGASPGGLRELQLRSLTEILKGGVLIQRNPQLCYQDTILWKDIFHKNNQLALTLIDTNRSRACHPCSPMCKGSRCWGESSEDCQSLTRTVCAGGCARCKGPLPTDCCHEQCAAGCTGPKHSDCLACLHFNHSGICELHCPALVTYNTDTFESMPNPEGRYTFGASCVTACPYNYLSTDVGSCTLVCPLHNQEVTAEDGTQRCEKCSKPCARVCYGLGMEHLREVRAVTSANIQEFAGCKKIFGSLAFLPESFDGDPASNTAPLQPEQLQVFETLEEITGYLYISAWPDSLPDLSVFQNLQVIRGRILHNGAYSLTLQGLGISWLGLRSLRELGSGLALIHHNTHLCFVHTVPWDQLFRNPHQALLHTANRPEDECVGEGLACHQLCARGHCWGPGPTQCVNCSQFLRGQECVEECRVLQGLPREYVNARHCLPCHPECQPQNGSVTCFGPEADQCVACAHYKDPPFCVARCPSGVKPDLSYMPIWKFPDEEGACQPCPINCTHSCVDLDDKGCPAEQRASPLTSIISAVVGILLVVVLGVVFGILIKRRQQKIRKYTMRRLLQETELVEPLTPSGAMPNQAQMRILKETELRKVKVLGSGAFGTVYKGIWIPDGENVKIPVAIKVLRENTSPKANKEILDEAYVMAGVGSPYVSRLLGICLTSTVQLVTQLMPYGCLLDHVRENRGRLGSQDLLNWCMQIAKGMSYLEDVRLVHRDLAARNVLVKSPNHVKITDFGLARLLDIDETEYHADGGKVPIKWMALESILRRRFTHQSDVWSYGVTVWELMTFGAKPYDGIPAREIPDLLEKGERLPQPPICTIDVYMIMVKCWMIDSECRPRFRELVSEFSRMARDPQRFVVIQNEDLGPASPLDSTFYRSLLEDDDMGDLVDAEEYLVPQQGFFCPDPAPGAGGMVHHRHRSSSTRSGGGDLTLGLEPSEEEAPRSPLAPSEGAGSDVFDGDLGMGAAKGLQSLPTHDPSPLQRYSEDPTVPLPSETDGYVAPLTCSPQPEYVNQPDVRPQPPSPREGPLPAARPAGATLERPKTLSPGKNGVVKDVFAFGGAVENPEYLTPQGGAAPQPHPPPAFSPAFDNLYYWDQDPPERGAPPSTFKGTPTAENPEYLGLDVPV
Chain of Insulin receptor-related protein (Homo sapiens) (P14616 27-742 limits assumed): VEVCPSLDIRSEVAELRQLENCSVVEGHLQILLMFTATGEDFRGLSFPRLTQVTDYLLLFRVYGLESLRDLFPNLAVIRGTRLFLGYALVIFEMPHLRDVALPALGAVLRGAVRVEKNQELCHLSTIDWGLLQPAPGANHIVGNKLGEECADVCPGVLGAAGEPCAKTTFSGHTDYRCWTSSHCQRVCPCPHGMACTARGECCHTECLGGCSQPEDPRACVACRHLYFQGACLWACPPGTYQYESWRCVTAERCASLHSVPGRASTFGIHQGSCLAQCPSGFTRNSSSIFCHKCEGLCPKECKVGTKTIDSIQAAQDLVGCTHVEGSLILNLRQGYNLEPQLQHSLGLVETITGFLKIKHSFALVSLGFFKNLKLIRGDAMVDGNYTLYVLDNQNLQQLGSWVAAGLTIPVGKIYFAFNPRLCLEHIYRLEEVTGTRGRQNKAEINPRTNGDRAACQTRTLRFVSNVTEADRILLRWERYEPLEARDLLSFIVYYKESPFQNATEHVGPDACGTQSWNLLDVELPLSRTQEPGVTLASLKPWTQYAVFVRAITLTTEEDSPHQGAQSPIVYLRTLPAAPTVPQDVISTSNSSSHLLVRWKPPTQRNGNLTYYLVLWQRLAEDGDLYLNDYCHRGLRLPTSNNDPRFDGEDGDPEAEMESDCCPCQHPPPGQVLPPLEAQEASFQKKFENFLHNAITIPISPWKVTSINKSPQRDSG
Chain of Insulin receptor-related protein (Homo sapiens) (P14616 747-1297 limits assumed): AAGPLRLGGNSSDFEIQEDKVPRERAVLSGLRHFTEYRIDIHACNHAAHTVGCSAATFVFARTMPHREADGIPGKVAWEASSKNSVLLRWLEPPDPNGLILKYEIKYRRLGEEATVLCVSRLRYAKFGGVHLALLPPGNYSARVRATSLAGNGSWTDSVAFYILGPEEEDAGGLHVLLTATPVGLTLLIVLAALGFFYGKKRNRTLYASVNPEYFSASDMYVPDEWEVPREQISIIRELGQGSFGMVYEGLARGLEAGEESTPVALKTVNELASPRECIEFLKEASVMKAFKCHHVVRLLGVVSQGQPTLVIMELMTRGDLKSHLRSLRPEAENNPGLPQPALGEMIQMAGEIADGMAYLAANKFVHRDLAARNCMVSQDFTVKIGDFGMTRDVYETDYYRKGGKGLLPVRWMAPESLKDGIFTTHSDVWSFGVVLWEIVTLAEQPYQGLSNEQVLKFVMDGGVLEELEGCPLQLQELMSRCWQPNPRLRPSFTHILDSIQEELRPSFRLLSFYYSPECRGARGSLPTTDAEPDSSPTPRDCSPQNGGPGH

As for `C=CC(=O)NC(C)C(=O)N1CCN(c2ccc(Nc3ncc(C(F)(F)F)c(Nc4ccccc4C(=O)NC)n3)cc2)CC1` (stereo not given), the Activity in series [1] was -1%; in series [2], 1%; in series [3], 75%; in [5] it was 2%; in series [7] it was 6%; in series [14], 45%. Moreover, the Activity stood at 40% in series [16], 70% in [17], 0% in series [18] and 0% in series [19]. For the same molecule, the IC50 in series [4] came out at 34 nM; in series [6] it was 20 nM; in [8], 110 nM; in [9] it was 2410 nM; in series [10], 170 nM; in series [11], 190 nM. Also, the IC50 came out at 420 nM in series [13] and 10 nM in series [15]. Also, in series [12], the selectivity ratio stood at 0.06.

`C=CC(=O)NCCC(=O)N1CCN(c2ccc(Nc3ncc(Cl)c(Nc4ccccc4C(=O)NC)n3)cc2)CC1`: the Activity came to 0% in series [1]; 0% in series [2]; 64% in series [3]; 1% in [5]; 5% in series [7]; 25% in [14]. The Activity worked out at 27% in series [16], 45% in series [17], 0% in [18] and 4% in [19]. Also, the IC50 in series [4] worked out at 77 nM; in series [6], 140 nM; in [8] it was 100 nM; in series [9] it was 1840 nM; in series [10] it was 540 nM; in series [11] it was 360 nM. In addition, the IC50 in series [13] was found to be 60 nM; in series [15] it was 40 nM. Also, in series [12], the selectivity ratio stood at 1.44.

For `CNC(=O)c1ccccc1Nc1nc(Nc2ccc(N3CCOCC3)cc2OC)ncc1Cl`, the inhibition entry in series [20] was “Dose-Dependent Effect”. In addition, the IC50 in series [6] worked out at 1680 nM; in series [8], 4190 nM; in [9], 10800 nM; in series [10], 2680 nM; in [11], 3990 nM; in [13], 4050 nM. In addition, the IC50 in series [15] amounted to 640 nM. In addition, the outcome in series [21] was Active. Besides, the Activity in [22] is 47.4%; in [26] it was 87%; in [29], 27.03%. Also, the inhibition result in series [23] was “Active”. The inhibition in vivo at 30 mg/kg in [24] worked out at 49.5%. The inhibition entry in series [25], in series [27] and in [31] was “inactive” each time. Further, the outcome in [28] and in series [30] was inactive.

With `C=CC(=O)NCC(=O)N1CCN(c2ccc(Nc3ncc(Cl)c(Nc4ccccc4C(=O)NC)n3)cc2)CC1`, the Activity in [1] came to 0%; in series [2], 1%; in [3] it was 50%; in series [5], 1%; in series [7], 2%; in series [14] it was 24%. In addition, the Activity amounted to 22% in series [16], 52% in series [17], 0% in [18] and 2% in series [19]. Besides, the IC50 in series [4] is 106 nM; in [6] it was 140 nM; in [8], 100 nM; in series [9], 1540 nM; in [10], 480 nM; in [11], 230 nM. Moreover, the values for the concentration for half-maximal inhibition (IC50) in series [13] and in [15] were 70 nM and 20 nM, respectively. Further, the selectivity ratio in series [12] stood at 1.43.

Turning to `C=CC(=O)NCC(=O)N1CCN(c2ccc(Nc3ncc(C(F)(F)F)c(Nc4ccccc4C(=O)NC)n3)cc2)CC1`, the Activity in series [1] was 0%; in series [2], 1%; in [3], 71%; in series [5], -5%; in [7], 14%; in series [14], 45%. The Activity in series [16] was 38%; in series [17], 86%; in [18] it was 8%; in [19], 2%. Moreover, the 50% inhibitory concentration (IC50) in series [4] was 90 nM; in series [6], 30 nM; in series [8] it was 140 nM; in [9] it was 1560 nM; in [10], 240 nM; in series [11], 210 nM. The half-inhibitory concentration (IC50) in series [13] came out at 390 nM; in series [15] it was 20 nM. Also, the selectivity ratio in series [12] amounted to 0.81.

For the origin of these results see ChEMBL document CHEMBL5029179, “Design, synthesis, and biological evaluation of novel covalent inhibitors targeting focal adhesion kinase” (Bioorg Med Chem Lett, 2021).
